Series [1] is described as follows: Cytotoxicity against HUVECs incubated for 48 hrs by CCK8 assay. It counts as toxicity, cell-based. The following applies: human, HUVEC cells.
Series [2] relates to U-87 MG. Briefly: Synergistic antiproliferative activity against human U-87 MG cells in presence of TMZ. It counts as functional, cell-based, U-87MG ATCC.
Series [3] concerns U-87 MG. As to the kind of experiment: Antitumor activity against human U-87 MG cells xenografted in BALB/c nude mouse assessed as reduction in tumor weight at 3 mg/kg, po administered every other day for 18 days in presence of 40 mg/kg TMZ. It is filed as functional, organism-based. The following applies: U-87MG ATCC, time 18.0 day.
A short description of series [4]: Cmax in Sprague-Dawley rat at 25 mg/kg, po measured upto 24 hrs by LC-MS/MS method. It is filed as ADME, organism-based. The note with it: in vivo.
A short description of series [5]: Cytotoxicity against HEK293T cells incubated for 48 hrs by CCK8 assay. It is filed as toxicity, cell-based, HEK-293T. The note with it: human.
Series [6] can be described thus: Tmax in Sprague-Dawley rat at 25 mg/kg, po measured upto 24 hrs by LC-MS/MS method. It counts as ADME, organism-based. The note with it: in vivo.
The test system of series [7] is U-87 MG. As to the kind of experiment: Induction of apoptosis in human U-87 MG cells assessed as G2/M phase cells at 5 uM incubated for 24 hrs by propidium iodide staining based flow cytometry analysis (reference value: 11.9%). It is filed as functional, U-87MG ATCC. On the technique in general: Flow cytometry measures light scatter and fluorescence of single cells or particles in a stream.

Series [8] in a line: Half-life in Sprague-Dawley rat at 5 mg/kg, iv measured upto 24 hrs by LC-MS/MS method. The note with it: in vivo. It is filed as ADME, organism-based.
For series [9], the system named is U-87MG ATCC. As to the kind of experiment: Downregulation of MGMT expression in human U-87 MG cells at 25 uM incubated for 24 hrs in presence of TMZ by Western blotting analysis. It is filed as functional, cell-based. (In general: A western blot detects proteins with antibodies after separation by electrophoresis.)
The subject of series [10] is U-87 MG. Briefly: Induction of apoptosis in human U-87 MG cells assessed as G0/G1 phase cells at 5 uM incubated for 24 hrs by propidium iodide staining based flow cytometry analysis (reference value: 58.8%). It is filed as functional, U-87MG ATCC.
Series [11] in a line: Cmax in Sprague-Dawley rat at 5 mg/kg, iv measured upto 24 hrs by LC-MS/MS method. The following applies: in vivo. It is filed as ADME, organism-based.
Series [12] relates to U-87 MG. As to the kind of experiment: Antitumor activity against human U-87 MG cells xenografted in BALB/c nude mouse assessed as tumor tissue necrosis at 1.5 to 3 mg/kg, po administered every other day for 18 days in presence of 40 mg/kg TMZ. It is filed as functional, organism-based. The following applies: U-87MG ATCC, dose 1.5-3 mg/kg, time 18.0 day. For orientation: Xenograft models place foreign cells or tissue in a host animal.

Series [13] can be described thus: Stability of compound in stimulated gastric fluid assessed as remaining compound after 24 hrs by HPLC method. It is filed as ADME. The following applies: simulated gastric fluid, read-out: Stability.
The test system of series [14] is U-87MG ATCC. Briefly: Upregulation of p27 expression in human U-87 MG cells at 6.25 to 100 uM after 24 hrs by Western blotting analysis. It is filed as functional, cell-based. The following applies: dose 6.25-100 µM.
In series [15] the test system is U-87 MG. As to the kind of experiment: Antitumor activity against human U-87 MG cells xenografted in BALB/c nude mouse assessed as reduction in MGMT expression at 1.5 to 3 mg/kg, po measured after 4 hrs in presence of 40 mg/kg TMZ by Western blotting analysis. The note with it: U-87MG ATCC, dose 1.5-3 mg/kg. It is filed as functional, organism-based.
The nature of series [16]: Aqueous stability of compound assessed as compound remaining measured at 240 mins by HPLC assay. It counts as physicochemical. The following applies: aqueous solution, read-out: Stability.
A short description of series [17]: AUC(0 to infinity) in Sprague-Dawley rat at 25 mg/kg, po measured upto 24 hrs by LC-MS/MS method. It counts as ADME, organism-based. The note with it: in vivo.

Active and inactive are the calls of the source. No cut-off for these calls is given here. Bounds are passed on as bounds.

Data on one compound can be found in ChEMBL document CHEMBL5584313, “Design and Synthesis of 7-Oxabicyclo[2.2.1]heptane-2,3-dicarboxylic Acid Derivatives as PP5 Inhibitors To Reverse Temozolomide Resistance in Glioblastoma Multiforme” (J Med Chem, 2024).

A word on the IC50: it is the concentration that gives 50% inhibition. For orientation: Cmax means the highest concentration seen after dosing. By Tmax is commonly meant the time at which the peak concentration occurs. Usually half-life stands for the time in which the quantity being followed falls by half. Low values mean fast loss, high ones slow loss. Usually AUC(0-inf) stands for total exposure, with the tail of the curve extrapolated. High values mean more exposure, low ones less exposure.

Consider `O=C(O)[C@@H]1[C@H](C(=O)n2ccc3ccccc32)[C@H]2CC[C@@H]1O2`, for which the IC50 at 48 h in [1] and in series [5] was over 200 µM in each case. Besides, the IC50 with U-87 MG [2] is 19.8 µM. Also, the result in the series with U-87 MG [3], in the series on U-87MG ATCC [9], in the series with U-87 MG [12], with U-87MG ATCC [14] and with U-87 MG [15] was Active. Besides, the Cmax in series [4] was 11300 ng/mL; in series [11], 8620 ng/mL. The time to peak (Tmax) in [6] came to 1.17 h. For the same compound, the Activity came out at 10.9% in the series with U-87 MG [7] and 72.2% with U-87 MG [10]. In [8], this compound had a half-life of 2.41 h. Besides, the remaining at 24 h in series [13] is 92%. Further, the remaining at 4 h in [16] came out at 99.8%. Also, the area under the curve AUC(0-inf) in [17] turned out to be 54400 ng·h/mL.
